# Laboratory results published in patent US20210346359A1, “Use of CFTR Modulators For Treating Cerebrovascular Conditions” (Qanatpharma AG, priority 2018, published 2021).
# Entries after “also recorded” stand apart in the source; their conditions may differ.
# Experiments:
# [1] = tested on: human CFTR mRNA; assay: Quantitative PCR of CFTR mRNA in baby hamster kidney fibroblast cells stably expressing human CFTR; type: cell-based; conditions: 6 μmol/L, 24 h
# Experimental: Procedures for isolating and culturing mesenteric artery smooth muscle cells were carried out as described in (10). Briefly, mesenteric artery segments were isolated, cut into small pieces and digested with trypsin, collagenase and elastase. The resulting cell suspension was washed several times in phosphate-buffered saline and plated in Dulbecco's Modified Eagle Medium (DMEM) culture media containing 10% fetal bovine serum and 1% penicillin-streptomycin. Cell cultures were maintained at 37° C. with 5% CO2 and split at 106 cells seeding density. […]
# Resistance artery RNA was isolated with Norgen Biotek (Thorold, Canada) “Total RNA Purification Micro” spin columns, using the proteinase K digestion and DNA removal procedures, as directed by the manufacturer's instructions. The eluted RNA was quantified with an Agilent Technologies RNA 6000 Pico Kit and Bioanalyzer; the analysis confirmed that high-quality RNA was retrieved from the artery tissue samples (RNA Integrity [RIN]: Cerebral=8.4±0.1, n=5; Cremaster=8.2±0.4, n=6). […]
# Quantitative FOR was performed using an Applied Biosystems ViiA™ 7 Real Time FCR system and Power SYBR® Green FCR master mix (both distributed by lnvitrogen Life Technologies). […] Gene targets were assessed in triplicate, using 1 ng of cDNA generated from the reverse transcription; negative controls received water. […]
# [2] = target: CFTR (Mus musculus, UniProt P26361); assay: Western blot of CFTR protein in cerebral arteries of naïve mice treated in vivo; design: Cerebral artery lysates were prepared by grinding artery samples in lysis buffer; from tissue; host or cells: cerebral arteries of male wild-type C57BL/6N mice (naïve, heart failure or subarachnoid hemorrhage models); conditions: 3 mg/kg daily for 2 days, vs vehicle controls
# Experimental: Western blots for CFTR were completed as previously described (12, 18). Cerebral artery lysates were prepared by grinding artery samples in lysis buffer containing 50 mM Tris (pH 7.3), 150 mM NaCl, 2 mM […], 0.1% Triton-X-100, 0.1% […] and protease inhibitors; the same lysis buffer was used to prepare cell culture lysates. Following lysis, the samples were centrifuged (10 minutes at 13,500 g; at 4° C.) to remove insoluble material. Immediately prior to polyacrylamide electrophoresis, additional SDS (to 2% final concentration), glycerol (to 2% final concentration), β-mercaptoethanol (to 2% final concentration) and dithiothreitol (2 mM final concentration) were added. Proteins were separated electrophoretically on 7% acrylamide gels and transferred onto polyvinylidene difluoride (PVDF) membranes. […]
# The primary antibodies were conjugated with either peroxidase-labeled donkey anti-rabbit IgG (GE Healthcare Amersham (Piscataway, USA) cat# NA934) or peroxidase-labeled goat anti-mouse IgG (GE Healthcare Amersham cat# NA931) secondary antibodies. […] Developed films were evaluated densitometrically using “Image J” software (freely available from the NIH); digital images were evaluated with Image Lab software (Bio-Rad). […]
# [3] = tested on: olfactory cerebral arteries; assay: Phenylephrine responses of isolated olfactory cerebral arteries; type: in vivo, mouse; conditions: for phenylephrine dose-response relationship, SAH vs SAH+treatment: not normalized; for log EC50 of phenylephrine response: olfactory cerebral arteries, SAH+treatment group, log scale
# Experimental: Isolation and functional assessment of resistance arteries: Mouse olfactory (a first branch of the anterior cerebral artery) and PCAs were carefully dissected, cannulated onto micropipettes, stretched to their in vivo lengths and pressurized to 45 mmHg, as previously described (3,6); mouse skeletal muscle resistance arteries were dissected from the cremaster muscle, cannulated and pressurized to 60 mmHg. All functional experiments were conducted in 3-morpholinopropanesulfonic acid (MOPS) buffered saline at 37° C. with no perfusion. Vasomotor responses to phenylephrine (5 μmol/L for posterior cerebral arteries, 10 μmol/L for cremaster skeletal muscle arteries) provided an assessment of vessel viability at the beginning and end of each experiment. Arteries failing to show ≥25% constriction to phenylephrine were excluded.
# Myogenic tone was calculated as the percent constriction in relation to the maximal diameter at each respective transmural pressure: tone (% of diamax)=[(diamax−diaactive)/diamax]×100, where diaactive is the vessel diameter in MOPS containing Ca^2+ and diamax is the diameter in Ca^2+-free MOPS. Analyses of vasomotor responses to phenylephrine used the same calculation, only in this case, diaactive represents the vessel diameter at steady state following application of the given agent and diamax represents the maximal diameter measured under Ca^2+-free conditions.
# [4] = olfactory cerebral arteries from SAH mice, 3 mg/kg i.p. daily for 2 days, 3 mg/kg
# CFTR, sequence (P26361 whole entry): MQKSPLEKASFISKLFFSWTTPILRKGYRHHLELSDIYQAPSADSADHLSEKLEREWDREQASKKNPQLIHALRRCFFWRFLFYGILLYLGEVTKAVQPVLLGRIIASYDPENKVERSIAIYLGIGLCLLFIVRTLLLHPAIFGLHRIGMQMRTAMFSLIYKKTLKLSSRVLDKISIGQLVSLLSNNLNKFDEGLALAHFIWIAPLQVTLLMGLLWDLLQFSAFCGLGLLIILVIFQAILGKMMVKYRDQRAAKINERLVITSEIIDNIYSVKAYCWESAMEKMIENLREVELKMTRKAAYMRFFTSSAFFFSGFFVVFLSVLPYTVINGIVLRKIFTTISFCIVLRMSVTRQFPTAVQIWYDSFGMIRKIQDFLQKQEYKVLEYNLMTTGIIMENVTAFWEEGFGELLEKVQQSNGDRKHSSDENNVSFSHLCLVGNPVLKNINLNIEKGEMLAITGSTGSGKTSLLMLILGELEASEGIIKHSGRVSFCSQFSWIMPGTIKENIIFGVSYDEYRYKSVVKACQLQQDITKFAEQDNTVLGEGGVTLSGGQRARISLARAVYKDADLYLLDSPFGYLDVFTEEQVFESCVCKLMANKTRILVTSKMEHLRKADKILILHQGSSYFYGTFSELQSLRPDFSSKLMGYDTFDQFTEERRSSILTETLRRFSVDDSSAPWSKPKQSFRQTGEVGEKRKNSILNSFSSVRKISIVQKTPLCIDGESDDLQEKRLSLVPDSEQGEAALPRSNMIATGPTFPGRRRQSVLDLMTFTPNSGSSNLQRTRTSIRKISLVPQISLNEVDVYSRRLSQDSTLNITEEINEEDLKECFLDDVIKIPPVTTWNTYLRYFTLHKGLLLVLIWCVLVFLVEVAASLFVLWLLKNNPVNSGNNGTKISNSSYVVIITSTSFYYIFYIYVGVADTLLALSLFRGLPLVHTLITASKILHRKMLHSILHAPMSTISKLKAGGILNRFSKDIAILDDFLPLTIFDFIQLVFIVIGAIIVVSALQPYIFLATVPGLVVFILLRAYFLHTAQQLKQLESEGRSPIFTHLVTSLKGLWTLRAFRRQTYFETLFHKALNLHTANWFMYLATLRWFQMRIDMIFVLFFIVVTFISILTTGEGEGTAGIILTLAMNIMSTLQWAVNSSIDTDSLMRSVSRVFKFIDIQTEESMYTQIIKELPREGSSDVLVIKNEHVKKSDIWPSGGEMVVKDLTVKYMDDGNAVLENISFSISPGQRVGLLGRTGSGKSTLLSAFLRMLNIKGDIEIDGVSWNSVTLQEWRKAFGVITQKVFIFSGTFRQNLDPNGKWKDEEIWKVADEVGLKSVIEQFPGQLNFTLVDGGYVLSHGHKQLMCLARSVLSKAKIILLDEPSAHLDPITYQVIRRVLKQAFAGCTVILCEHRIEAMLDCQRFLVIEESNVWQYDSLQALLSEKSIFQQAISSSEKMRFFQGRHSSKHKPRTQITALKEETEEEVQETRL
CFTR protein expression in cerebral arteries [2],log EC50 of phenylephrine response [3],SMILES,CFTR mRNA expression [1],"phenylephrine dose-response relationship ([3]; olfactory cerebral arteries from CFTR knockout mice, 3 mg/kg i.p. daily for 2 days, 3 mg/kg)","phenylephrine dose-response relationship normalized to basal tone, SAH vs SAH+C18 [3, 4]","phenylephrine dose-response relationship, SAH vs SAH+treatment [3, 4]","phenylephrine dose-response relationship ([3]; olfactory cerebral arteries from sham-operated mice, 3 mg/kg i.p. daily for 2 days, 3 mg/kg)",CFTR protein expression in cerebral arteries ([2]; 3 mg/kg)
higher,−6.61±0.31,"O=C(Nc1ncc(C(c2ccccc2Cl)N2CCC(O)C2)s1)C1(c2ccc3c(c2)OCO3)CC1 (centres unmarked) [C18, 1-(benzo[d][1,3]dioxol-5-yl)-N-(5-((2-chlorophenyl)(3-hydroxypyrrolidin-1-yl)methyl)thiazol-2-yl)cyclopropanecarboxamide]",no affect; also recorded: does not influence,not affected; also recorded: does not alter,curves overlap; also recorded: minimal,expected baseline shift; also recorded: not statistically different,does not affect; also recorded: does not alter,
,−5.90±0.18,Cc1ccc(NC(=O)C2(c3ccc4c(c3)OC(F)(F)O4)CC2)nc1-c1cccc(C(=O)O)c1 [lumacaftor],unaffected; also recorded: does not influence,,,does not affect; also recorded: does not alter,,increases CFTR protein expression; also recorded: higher
